Measurements from PMC6430017, “Structural and chemical insights into the covalent-allosteric inhibition of the protein kinase Akt” (Chemical Science, 2019).

Molecular target: T1, PDK1 Direct (Homo sapiens, UniProt O15530)
T1 sequence (O15530 1-556): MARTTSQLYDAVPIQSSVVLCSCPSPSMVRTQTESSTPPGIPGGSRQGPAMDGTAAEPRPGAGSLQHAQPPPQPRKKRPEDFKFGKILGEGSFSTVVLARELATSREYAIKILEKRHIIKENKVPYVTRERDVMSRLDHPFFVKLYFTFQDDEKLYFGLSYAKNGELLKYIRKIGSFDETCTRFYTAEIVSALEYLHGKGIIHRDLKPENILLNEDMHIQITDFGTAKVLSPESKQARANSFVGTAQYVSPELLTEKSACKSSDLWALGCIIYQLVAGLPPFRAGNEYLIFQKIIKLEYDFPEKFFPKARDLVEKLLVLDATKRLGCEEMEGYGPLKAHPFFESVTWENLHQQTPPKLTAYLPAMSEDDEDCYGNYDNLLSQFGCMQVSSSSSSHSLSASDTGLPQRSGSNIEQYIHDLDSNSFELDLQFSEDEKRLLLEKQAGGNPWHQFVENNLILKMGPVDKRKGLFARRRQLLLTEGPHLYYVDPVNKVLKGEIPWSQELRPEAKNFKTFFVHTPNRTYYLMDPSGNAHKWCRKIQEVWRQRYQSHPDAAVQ
Assay: SelectScreen Z'LYTE kinase profiling
Assay type: biochemical
Details: ATP at apparent KM
Description: (§1) protein kinases at a compound concentration of 1 µM. Measurements were performed in duplicates
(§2) and at the particular apparent ATP KM of each individual kinase employing the activity based Z’LYTE®
(§3) kinase assay of the SelectScreen® Kinase Profiling Services (ThermoFisher Scientific).
(§4) kinases at a compound concentration of 1 µM. Measurements were performed in duplicates and at
(§5) the particular apparent ATP KM of each individual kinase employing the activity based Z’LYTE® kinase
(§6) assay of the SelectScreen® Kinase Profiling Services (ThermoFisher Scientific).

Row | Structure (SMILES) | inhibition at 1 µM
1 | C=CC(=O)Nc1ccc2c(c1)n(C1CCN(Cc3ccc(-c4nc5cc[nH]c(=O)c5cc4-c4ccccc4)cc3)CC1)c(=O)n2C [24b] | 8%
2 | C=CC(=O)Nc1cccc(C(=O)NC2CCN(Cc3ccc(-c4nc5cc[nH]c(=O)c5cc4-c4ccccc4)cc3)CC2)c1 [30b] | 1%
3 | C=CC(=O)Nc1cc(NC(=O)NC2CCN(Cc3ccc(-c4nc5cc[nH]c(=O)c5cc4-c4ccccc4)cc3)CC2)ccc1Cl [compound 27] | 3%

Molecular target: AURKB (Aurora B) (Homo sapiens, UniProt Q96GD4)
Assay: SelectScreen Z'LYTE kinase profiling
Assay type: biochemical
Details: ATP at apparent KM
Description: as §1, §2, §3, §4, §5, §6

AURKB (Aurora B), sequence (Q96GD4 whole entry): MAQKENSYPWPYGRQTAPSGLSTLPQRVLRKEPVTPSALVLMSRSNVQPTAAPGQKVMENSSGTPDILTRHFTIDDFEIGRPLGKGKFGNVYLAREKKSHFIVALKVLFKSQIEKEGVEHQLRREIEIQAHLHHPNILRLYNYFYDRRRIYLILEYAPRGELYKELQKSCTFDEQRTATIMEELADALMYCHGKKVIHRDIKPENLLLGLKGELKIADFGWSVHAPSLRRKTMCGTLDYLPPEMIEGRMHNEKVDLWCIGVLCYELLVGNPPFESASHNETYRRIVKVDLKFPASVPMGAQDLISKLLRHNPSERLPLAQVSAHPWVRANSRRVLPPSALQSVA

Row | Structure (SMILES) | inhibition at 1 µM
4 | C=CC(=O)Nc1ccc2c(c1)n(C1CCN(Cc3ccc(-c4nc5cc[nH]c(=O)c5cc4-c4ccccc4)cc3)CC1)c(=O)n2C [24b] | 0%
5 | C=CC(=O)Nc1cccc(C(=O)NC2CCN(Cc3ccc(-c4nc5cc[nH]c(=O)c5cc4-c4ccccc4)cc3)CC2)c1 [30b] | 2%
6 | C=CC(=O)Nc1cc(NC(=O)NC2CCN(Cc3ccc(-c4nc5cc[nH]c(=O)c5cc4-c4ccccc4)cc3)CC2)ccc1Cl [compound 27] | 2%

Molecular target: RPS6KA2 (RSK3) (Homo sapiens, UniProt Q15349)
Assay: SelectScreen Z'LYTE kinase profiling
Assay type: biochemical
Details: ATP at apparent KM
Description: as §1, §2, §3, §4, §5, §6

RPS6KA2 (RSK3), sequence (Q15349 whole entry): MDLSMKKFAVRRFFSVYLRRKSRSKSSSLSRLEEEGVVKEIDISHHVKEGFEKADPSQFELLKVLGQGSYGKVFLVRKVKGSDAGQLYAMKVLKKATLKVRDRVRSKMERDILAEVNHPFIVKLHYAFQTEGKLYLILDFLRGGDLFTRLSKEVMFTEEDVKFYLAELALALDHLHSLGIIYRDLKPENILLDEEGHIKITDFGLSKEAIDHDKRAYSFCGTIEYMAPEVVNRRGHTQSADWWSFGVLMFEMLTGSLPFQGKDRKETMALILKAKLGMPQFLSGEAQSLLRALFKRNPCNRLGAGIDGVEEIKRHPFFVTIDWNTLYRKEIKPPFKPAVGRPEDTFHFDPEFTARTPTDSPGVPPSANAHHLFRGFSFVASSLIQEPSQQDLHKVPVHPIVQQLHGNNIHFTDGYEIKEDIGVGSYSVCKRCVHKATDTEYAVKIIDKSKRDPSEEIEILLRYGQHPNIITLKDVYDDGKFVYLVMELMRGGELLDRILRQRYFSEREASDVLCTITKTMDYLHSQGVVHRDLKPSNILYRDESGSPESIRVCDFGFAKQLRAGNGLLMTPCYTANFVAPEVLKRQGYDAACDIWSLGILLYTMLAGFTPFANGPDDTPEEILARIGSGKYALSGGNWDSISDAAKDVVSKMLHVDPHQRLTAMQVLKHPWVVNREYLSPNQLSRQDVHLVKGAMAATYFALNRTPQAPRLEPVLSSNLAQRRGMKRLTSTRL

Row | Structure (SMILES) | inhibition at 1 µM
7 | C=CC(=O)Nc1ccc2c(c1)n(C1CCN(Cc3ccc(-c4nc5cc[nH]c(=O)c5cc4-c4ccccc4)cc3)CC1)c(=O)n2C [24b] | 25%
8 | C=CC(=O)Nc1cccc(C(=O)NC2CCN(Cc3ccc(-c4nc5cc[nH]c(=O)c5cc4-c4ccccc4)cc3)CC2)c1 [30b] | 33%
9 | C=CC(=O)Nc1cc(NC(=O)NC2CCN(Cc3ccc(-c4nc5cc[nH]c(=O)c5cc4-c4ccccc4)cc3)CC2)ccc1Cl [compound 27] | 31%

Molecular target: T2, PRKCE (PKC epsilon) (Homo sapiens, UniProt Q02156)
T2 sequence (Q02156 1-737): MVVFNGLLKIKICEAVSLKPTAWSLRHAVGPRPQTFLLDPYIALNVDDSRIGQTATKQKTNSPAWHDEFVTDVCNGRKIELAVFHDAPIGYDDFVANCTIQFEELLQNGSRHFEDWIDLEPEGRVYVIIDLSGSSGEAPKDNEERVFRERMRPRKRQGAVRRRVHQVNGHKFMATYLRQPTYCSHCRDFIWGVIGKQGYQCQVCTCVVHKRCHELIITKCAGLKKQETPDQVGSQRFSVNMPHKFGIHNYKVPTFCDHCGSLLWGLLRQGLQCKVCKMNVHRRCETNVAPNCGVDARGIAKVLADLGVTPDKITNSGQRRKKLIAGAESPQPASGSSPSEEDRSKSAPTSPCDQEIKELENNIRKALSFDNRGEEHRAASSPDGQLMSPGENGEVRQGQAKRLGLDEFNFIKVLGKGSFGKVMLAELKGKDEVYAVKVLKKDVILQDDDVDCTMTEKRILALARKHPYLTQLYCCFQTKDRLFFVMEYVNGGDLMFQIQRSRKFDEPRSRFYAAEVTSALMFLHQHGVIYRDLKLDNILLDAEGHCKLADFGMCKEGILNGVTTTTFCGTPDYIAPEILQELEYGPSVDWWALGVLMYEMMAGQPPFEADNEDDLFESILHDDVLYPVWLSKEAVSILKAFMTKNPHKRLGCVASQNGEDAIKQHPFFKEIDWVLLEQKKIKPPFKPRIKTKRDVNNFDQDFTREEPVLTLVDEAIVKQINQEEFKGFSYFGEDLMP
Assay: SelectScreen Z'LYTE kinase profiling
Assay type: biochemical
Details: ATP at apparent KM
Description: as §1, §2, §3, §4, §5, §6

Row | Structure (SMILES) | inhibition at 1 µM
10 | C=CC(=O)Nc1ccc2c(c1)n(C1CCN(Cc3ccc(-c4nc5cc[nH]c(=O)c5cc4-c4ccccc4)cc3)CC1)c(=O)n2C [24b] | 12%
11 | C=CC(=O)Nc1cccc(C(=O)NC2CCN(Cc3ccc(-c4nc5cc[nH]c(=O)c5cc4-c4ccccc4)cc3)CC2)c1 [30b] | 27%
12 | C=CC(=O)Nc1cc(NC(=O)NC2CCN(Cc3ccc(-c4nc5cc[nH]c(=O)c5cc4-c4ccccc4)cc3)CC2)ccc1Cl [compound 27] | 11%

Molecular target: MAPK1 (ERK2) (Homo sapiens, UniProt P28482)
Assay: SelectScreen Z'LYTE kinase profiling
Assay type: biochemical
Details: ATP at apparent KM
Description: as §1, §2, §3, §4, §5, §6

MAPK1 (ERK2), sequence (P28482 whole entry): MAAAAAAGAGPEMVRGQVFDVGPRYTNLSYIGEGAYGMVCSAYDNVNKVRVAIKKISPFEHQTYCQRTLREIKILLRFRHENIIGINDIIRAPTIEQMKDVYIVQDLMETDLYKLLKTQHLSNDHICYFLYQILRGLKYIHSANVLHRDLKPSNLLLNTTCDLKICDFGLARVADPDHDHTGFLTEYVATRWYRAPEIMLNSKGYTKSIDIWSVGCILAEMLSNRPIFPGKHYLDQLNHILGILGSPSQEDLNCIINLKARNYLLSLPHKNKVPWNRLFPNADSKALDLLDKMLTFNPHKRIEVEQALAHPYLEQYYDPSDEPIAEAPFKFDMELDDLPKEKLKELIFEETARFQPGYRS

Row | Structure (SMILES) | inhibition at 1 µM
13 | C=CC(=O)Nc1ccc2c(c1)n(C1CCN(Cc3ccc(-c4nc5cc[nH]c(=O)c5cc4-c4ccccc4)cc3)CC1)c(=O)n2C [24b] | 2%
14 | C=CC(=O)Nc1cccc(C(=O)NC2CCN(Cc3ccc(-c4nc5cc[nH]c(=O)c5cc4-c4ccccc4)cc3)CC2)c1 [30b] | 13%
15 | C=CC(=O)Nc1cc(NC(=O)NC2CCN(Cc3ccc(-c4nc5cc[nH]c(=O)c5cc4-c4ccccc4)cc3)CC2)ccc1Cl [compound 27] | 11%

Molecular target: PDGFRA (PDGFR alpha) (Homo sapiens, UniProt P16234)
Assay: SelectScreen Z'LYTE kinase profiling
Assay type: biochemical
Details: ATP at apparent KM
Description: as §1, §2, §3, §4, §5, §6

PDGFRA (PDGFR alpha), sequence (P16234 24-1089): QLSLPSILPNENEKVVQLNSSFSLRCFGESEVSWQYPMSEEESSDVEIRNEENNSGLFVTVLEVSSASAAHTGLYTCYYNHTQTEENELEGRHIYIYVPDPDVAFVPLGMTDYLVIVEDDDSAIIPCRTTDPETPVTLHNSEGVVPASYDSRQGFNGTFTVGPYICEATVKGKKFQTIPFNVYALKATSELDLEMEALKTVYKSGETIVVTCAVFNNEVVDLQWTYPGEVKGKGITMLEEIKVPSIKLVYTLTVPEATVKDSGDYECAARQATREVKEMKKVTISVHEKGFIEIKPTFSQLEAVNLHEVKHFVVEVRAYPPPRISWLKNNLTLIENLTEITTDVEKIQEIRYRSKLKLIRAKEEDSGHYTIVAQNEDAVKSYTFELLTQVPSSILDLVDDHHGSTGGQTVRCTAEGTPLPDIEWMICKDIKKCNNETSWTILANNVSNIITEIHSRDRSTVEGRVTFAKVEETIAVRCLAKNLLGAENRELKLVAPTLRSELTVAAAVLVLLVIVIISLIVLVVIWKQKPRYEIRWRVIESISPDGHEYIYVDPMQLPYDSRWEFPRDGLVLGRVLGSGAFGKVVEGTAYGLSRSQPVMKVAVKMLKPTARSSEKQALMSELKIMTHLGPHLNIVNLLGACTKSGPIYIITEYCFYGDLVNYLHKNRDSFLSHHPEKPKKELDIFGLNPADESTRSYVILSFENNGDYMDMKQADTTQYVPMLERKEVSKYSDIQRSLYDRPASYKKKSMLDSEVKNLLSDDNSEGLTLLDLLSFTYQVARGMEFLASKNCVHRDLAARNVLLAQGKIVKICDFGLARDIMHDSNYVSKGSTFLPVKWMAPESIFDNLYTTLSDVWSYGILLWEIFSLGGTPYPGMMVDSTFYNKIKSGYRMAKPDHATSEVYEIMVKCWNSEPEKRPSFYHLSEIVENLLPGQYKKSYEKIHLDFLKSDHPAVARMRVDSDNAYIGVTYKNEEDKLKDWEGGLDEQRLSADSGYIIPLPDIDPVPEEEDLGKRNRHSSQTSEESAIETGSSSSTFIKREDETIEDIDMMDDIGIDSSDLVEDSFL

Row | Structure (SMILES) | inhibition at 1 µM
16 | C=CC(=O)Nc1ccc2c(c1)n(C1CCN(Cc3ccc(-c4nc5cc[nH]c(=O)c5cc4-c4ccccc4)cc3)CC1)c(=O)n2C [24b] | -5%
17 | C=CC(=O)Nc1cccc(C(=O)NC2CCN(Cc3ccc(-c4nc5cc[nH]c(=O)c5cc4-c4ccccc4)cc3)CC2)c1 [30b] | -7%
18 | C=CC(=O)Nc1cc(NC(=O)NC2CCN(Cc3ccc(-c4nc5cc[nH]c(=O)c5cc4-c4ccccc4)cc3)CC2)ccc1Cl [compound 27] | 0%

Molecular target: T3, GRK7 (Homo sapiens, UniProt Q8WTQ7)
T3 sequence (Q8WTQ7 1-553): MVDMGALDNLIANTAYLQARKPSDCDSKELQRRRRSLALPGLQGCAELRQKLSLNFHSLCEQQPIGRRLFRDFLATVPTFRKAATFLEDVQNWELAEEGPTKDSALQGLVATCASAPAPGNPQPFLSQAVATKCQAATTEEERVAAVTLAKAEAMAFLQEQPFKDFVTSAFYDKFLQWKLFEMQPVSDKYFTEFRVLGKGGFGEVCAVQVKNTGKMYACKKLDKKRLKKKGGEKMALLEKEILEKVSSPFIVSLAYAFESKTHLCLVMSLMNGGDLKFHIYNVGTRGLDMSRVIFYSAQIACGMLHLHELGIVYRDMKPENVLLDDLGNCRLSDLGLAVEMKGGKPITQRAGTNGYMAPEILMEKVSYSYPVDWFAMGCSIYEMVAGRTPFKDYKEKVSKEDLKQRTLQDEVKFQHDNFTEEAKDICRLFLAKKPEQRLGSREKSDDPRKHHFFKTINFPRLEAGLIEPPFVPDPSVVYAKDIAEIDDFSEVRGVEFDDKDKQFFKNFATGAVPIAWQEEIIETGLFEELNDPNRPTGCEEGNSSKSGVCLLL
Assay: SelectScreen Z'LYTE kinase profiling
Assay type: biochemical
Details: ATP at apparent KM
Description: as §1, §2, §3, §4, §5, §6

Row | Structure (SMILES) | inhibition at 1 µM
19 | C=CC(=O)Nc1ccc2c(c1)n(C1CCN(Cc3ccc(-c4nc5cc[nH]c(=O)c5cc4-c4ccccc4)cc3)CC1)c(=O)n2C [24b] | -4%
20 | C=CC(=O)Nc1cccc(C(=O)NC2CCN(Cc3ccc(-c4nc5cc[nH]c(=O)c5cc4-c4ccccc4)cc3)CC2)c1 [30b] | 5%
21 | C=CC(=O)Nc1cc(NC(=O)NC2CCN(Cc3ccc(-c4nc5cc[nH]c(=O)c5cc4-c4ccccc4)cc3)CC2)ccc1Cl [compound 27] | 5%

Molecular target: PRKCH (PKC eta) (Homo sapiens, UniProt P24723)
Assay: SelectScreen Z'LYTE kinase profiling
Assay type: biochemical
Details: ATP at apparent KM
Description: as §1, §2, §3, §4, §5, §6

PRKCH (PKC eta), sequence (P24723 whole entry): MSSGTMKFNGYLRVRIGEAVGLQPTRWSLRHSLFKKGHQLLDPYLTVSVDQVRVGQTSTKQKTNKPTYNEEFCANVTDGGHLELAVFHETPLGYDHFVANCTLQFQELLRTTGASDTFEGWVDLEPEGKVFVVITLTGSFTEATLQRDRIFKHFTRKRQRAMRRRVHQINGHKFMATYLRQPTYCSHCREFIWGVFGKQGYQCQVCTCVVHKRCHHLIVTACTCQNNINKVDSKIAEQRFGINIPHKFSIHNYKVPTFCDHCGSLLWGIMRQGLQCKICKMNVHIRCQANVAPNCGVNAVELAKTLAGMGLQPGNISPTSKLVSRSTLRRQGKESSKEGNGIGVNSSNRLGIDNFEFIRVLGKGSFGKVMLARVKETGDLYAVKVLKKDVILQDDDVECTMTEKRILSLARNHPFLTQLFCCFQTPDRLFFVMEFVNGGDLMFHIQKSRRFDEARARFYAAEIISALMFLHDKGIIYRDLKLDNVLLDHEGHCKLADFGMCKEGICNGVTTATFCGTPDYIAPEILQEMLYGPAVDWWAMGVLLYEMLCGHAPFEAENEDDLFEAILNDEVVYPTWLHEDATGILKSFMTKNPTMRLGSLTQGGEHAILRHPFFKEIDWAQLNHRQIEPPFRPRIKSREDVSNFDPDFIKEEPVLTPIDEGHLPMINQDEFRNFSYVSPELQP

Row | Structure (SMILES) | inhibition at 1 µM
22 | C=CC(=O)Nc1ccc2c(c1)n(C1CCN(Cc3ccc(-c4nc5cc[nH]c(=O)c5cc4-c4ccccc4)cc3)CC1)c(=O)n2C [24b] | 7%
23 | C=CC(=O)Nc1cccc(C(=O)NC2CCN(Cc3ccc(-c4nc5cc[nH]c(=O)c5cc4-c4ccccc4)cc3)CC2)c1 [30b] | 14%
24 | C=CC(=O)Nc1cc(NC(=O)NC2CCN(Cc3ccc(-c4nc5cc[nH]c(=O)c5cc4-c4ccccc4)cc3)CC2)ccc1Cl [compound 27] | 21%

Molecular target: MAPK14 (p38 alpha) Direct (Homo sapiens, UniProt Q16539)
Assay: SelectScreen Z'LYTE kinase profiling
Assay type: biochemical
Details: ATP at apparent KM
Description: as §1, §2, §3, §4, §5, §6

MAPK14 (p38 alpha) Direct, sequence (Q16539 whole entry): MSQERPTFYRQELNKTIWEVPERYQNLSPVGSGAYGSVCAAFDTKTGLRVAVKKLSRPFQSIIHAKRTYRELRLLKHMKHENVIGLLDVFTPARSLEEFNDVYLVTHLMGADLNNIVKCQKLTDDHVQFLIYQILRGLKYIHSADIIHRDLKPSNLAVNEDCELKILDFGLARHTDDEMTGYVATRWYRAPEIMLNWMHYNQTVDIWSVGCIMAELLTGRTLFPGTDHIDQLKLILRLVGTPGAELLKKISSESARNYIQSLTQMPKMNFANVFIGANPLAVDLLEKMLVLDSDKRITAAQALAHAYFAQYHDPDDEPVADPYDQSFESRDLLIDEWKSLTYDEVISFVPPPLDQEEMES

Row | Structure (SMILES) | inhibition at 1 µM
25 | C=CC(=O)Nc1ccc2c(c1)n(C1CCN(Cc3ccc(-c4nc5cc[nH]c(=O)c5cc4-c4ccccc4)cc3)CC1)c(=O)n2C [24b] | 2%
26 | C=CC(=O)Nc1cccc(C(=O)NC2CCN(Cc3ccc(-c4nc5cc[nH]c(=O)c5cc4-c4ccccc4)cc3)CC2)c1 [30b] | 6%
27 | C=CC(=O)Nc1cc(NC(=O)NC2CCN(Cc3ccc(-c4nc5cc[nH]c(=O)c5cc4-c4ccccc4)cc3)CC2)ccc1Cl [compound 27] | 10%

Molecular target: T4, BMX (Homo sapiens, UniProt P51813)
T4 sequence (P51813 1-675): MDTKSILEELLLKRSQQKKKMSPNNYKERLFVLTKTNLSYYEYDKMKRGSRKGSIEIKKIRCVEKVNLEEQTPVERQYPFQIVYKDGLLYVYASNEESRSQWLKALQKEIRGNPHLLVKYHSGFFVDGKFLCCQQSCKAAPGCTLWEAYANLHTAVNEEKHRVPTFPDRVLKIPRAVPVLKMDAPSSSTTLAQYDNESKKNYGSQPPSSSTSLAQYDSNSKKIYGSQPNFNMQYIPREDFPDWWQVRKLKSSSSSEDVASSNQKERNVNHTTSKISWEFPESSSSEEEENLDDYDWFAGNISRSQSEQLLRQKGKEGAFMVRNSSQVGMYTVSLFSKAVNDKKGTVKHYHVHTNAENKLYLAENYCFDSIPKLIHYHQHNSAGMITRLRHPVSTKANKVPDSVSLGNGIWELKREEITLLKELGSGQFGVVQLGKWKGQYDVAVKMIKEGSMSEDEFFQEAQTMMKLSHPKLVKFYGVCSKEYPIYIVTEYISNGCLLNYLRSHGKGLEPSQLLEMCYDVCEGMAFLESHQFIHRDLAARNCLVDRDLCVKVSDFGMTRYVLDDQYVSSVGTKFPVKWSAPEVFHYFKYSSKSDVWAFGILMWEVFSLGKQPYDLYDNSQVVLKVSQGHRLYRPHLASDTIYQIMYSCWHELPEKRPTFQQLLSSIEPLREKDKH
Assay: SelectScreen Z'LYTE kinase profiling
Assay type: biochemical
Details: ATP at apparent KM
Description: as §1, §2, §3, §4, §5, §6

Row | Structure (SMILES) | inhibition at 1 µM
28 | C=CC(=O)Nc1ccc2c(c1)n(C1CCN(Cc3ccc(-c4nc5cc[nH]c(=O)c5cc4-c4ccccc4)cc3)CC1)c(=O)n2C [24b] | 28%
29 | C=CC(=O)Nc1cccc(C(=O)NC2CCN(Cc3ccc(-c4nc5cc[nH]c(=O)c5cc4-c4ccccc4)cc3)CC2)c1 [30b] | 44%
30 | C=CC(=O)Nc1cc(NC(=O)NC2CCN(Cc3ccc(-c4nc5cc[nH]c(=O)c5cc4-c4ccccc4)cc3)CC2)ccc1Cl [compound 27] | 3%
